Source: US20180344680A1, “COMPOSITIONS AND METHODS FOR TREATMENT, AMELIORATION, AND PREVENTION OF DIABETES-RELATED SKIN ULCERS” (THE ARIZONA BOARD OF REGENTS ON BEHALF OF THE UNIVERSITY OF …, priority 2015, published 2018)

How the values were obtained:
HaCaT cells = test: ROS measurement (DCF/flow cytometry) in HaCaT cells; assay type: cell-based, human; details: HG HaCaT cells; 5 μmol/L SF or 20 μmol/L CA every 24 h, 48 h
Description: Human immortalized keratinocytes HaCaT were obtained from the Arizona Cancer Center (see, […], et al., J Cell Biol 106:761-771, 1988). Cells were grown in Dulbecco's modified Eagle's medium (DMEM) containing low glucose (LG, 5.5 mmol/L) and 10% fetal bovine serum (FBS) in an incubator at 37° C. with 5% CO2. For the experiments, the cells were starved in serum-free LG DMEM for 24 h, then either maintained in LG DMEM or switched to high glucose (HG, 25 mmol/L) DMEM for 2 days (see, e.g., Zheng H, et al., Diabetes 60:3055-3066, 2011; Lan C C, et al., Br J Dermatol 159:1103-1115, 2008). For the treatments, the cells were dosed with 5 μmol/L SF or 20 μmol/L CA. siRNA transfections. […] ROS were measured in HaCaT cells using DCF. […] Then, 48 h later, the cells were switched into fresh medium containing 10 μg/mL DCF, incubated 30 min, and fluorescence intensity was measured by flow cytometry. The rate of cell proliferation was measured by two methods (see, […], et al., Proc Natl Acad Sci USA 108:1433-1438, 2011): 1) detection of Ki67 using indirect immunofluorescence as described previously (see, e.g., Lau A, et al., Mol Cell Biol 30:3275-3285, 2010); and 2) using the xCELLigence system (Roche). For this, 8000 HaCaT cells/well were seeded in LG or HG media, with or without an NRF2 activator, and cell growth was monitored for 72 h. […]

NRF2 pathway = test: Immunoblot and IHC of NRF2 and its target genes in wound skin tissues of STZ mice; assay type: in vivo, mouse; details: 12.5 mg/kg SF or 50 mg/kg CA i.p. every other day; for protein expression of NRF2 and its target genes HO-1, AKR1C1, and NQO1 (immunoblot): diabetic mouse skin tissue lysates; for NRF2 and HO-1 level by IHC: wound skin tissues of diabetic mice
Description: Diabetes mouse model and treatments. […] The STZ-induced diabetic model was previously described (see, e.g., Zheng H, et al., Diabetes 60:3055-3066, 2011) and only 8 week old male mice were included in this study. Briefly, three weeks after STZ injections, fasting glucose levels (FGL, 4 h fast) were measured using the AlphaTRAK system (Abbott Laboratory, North Chicago, Ill.) and mice with a FGL higher than or equal to 250 mg/dL were considered diabetic and included in the study (see, e.g., FIG. 2A and FIG. 3A for a detailed timeline). The mice (n=5-8) were then allocated randomly to each of the indicated treatment groups and received corn oil (control), 12.5 mg/kg SF or 50 mg/kg CA intraperitoneally every two days until skin tissues were harvested. One week after the treatments, the mice were anesthetized, their backs were shaved and cleaned. Two wounds were made with a sterile 6 mm skin biopsy punch (Health link, Jacksonville, Fla.) and covered with 3M Tegaderm pads. […] The tissues were collected using an 8 mm skin biopsy punch; one half was fixed in 10% buffered formalin and embedded in paraffin while the other half was used for protein extraction. […] Wounds and tissue collection were performed as described above.
Immunohistochemistry (IHC), immunoblot analyses, TGF-β1 immunoassay, and gelatin zymography. […] For IHC, antigen retrieval was performed by boiling in sodium citrate buffer (10 mM, pH 6.0) or EDTA buffer (1 mM, pH 8.0). After blocking endogenous peroxidase and non-specific binding, tissue sections were incubated with the indicated primary antibodies. Staining was performed using the Envision system HRP-DAB kit (DAKO North America, CA) according to the manufacturer's instructions.
For protein detection of mouse skin tissues were homogenized in lysis buffer (50 mM Tris-HCl buffer pH 7.4, 100 mM DTT, 2% SDS, 10% glycerol). Protein concentration was measured using Quant-iT Protein Assay (Invitrogen) and 150 μg of protein were resolved by SDS-PAGE and immunoblotting analyses with the indicated antibodies.
To explore the feasibility of pharmacologic activation of NRF2 in facilitating diabetic wound healing, sulforaphane (SF) and cinnamaldehyde (CA), two well-studied NRF2 activators, were tested for their ability to activate the NRF2-mediated antioxidant response in mouse skin tissues. After induction of diabetes using STZ, diabetic Nrf2^+/+ mice were intraperitoneally injected with corn oil (vehicle control), 12.5 mg/kg SF, or 50 mg/kg CA every other day for 1 week, then the wound surgery was performed and the treatment continued for 2 more weeks (FIG. 3A).

Structure (SMILES)	ROS levels (HaCaT cells)	protein expression of NRF2 and its target genes HO-1, AKR1C1, and NQO1 (immunoblot) (NRF2 pathway)	NRF2 and HO-1 level by IHC (NRF2 pathway)
O=CC=Cc1ccccc1 [CA, Cinnamaldehyde]	reduced ROS levels significantly	upregulated	high level
C[S@@+]([O-])CCCCN=C=S [SF, L-sulforaphane]	reduced ROS levels significantly	upregulated	high level
